Publication PMC11980595, “Pyruvate kinase directly generates GTP in glycolysis, supporting growth and contributing to guanosine toxicity” (mBio, 2025)

Legend:
Format in all cases: biochemical
E. faecalis PK = biological target: T1, E. faecalis PK (Enterococcus faecalis, UniProt Q836R2); assay: pyruvate kinase activity assay, catalytic efficiency; details: co-substrate PEP; only kcat/Km, in figure
T1 construct: gene pyk; construct and purification not described
T1 sequence (Q836R2 1-585): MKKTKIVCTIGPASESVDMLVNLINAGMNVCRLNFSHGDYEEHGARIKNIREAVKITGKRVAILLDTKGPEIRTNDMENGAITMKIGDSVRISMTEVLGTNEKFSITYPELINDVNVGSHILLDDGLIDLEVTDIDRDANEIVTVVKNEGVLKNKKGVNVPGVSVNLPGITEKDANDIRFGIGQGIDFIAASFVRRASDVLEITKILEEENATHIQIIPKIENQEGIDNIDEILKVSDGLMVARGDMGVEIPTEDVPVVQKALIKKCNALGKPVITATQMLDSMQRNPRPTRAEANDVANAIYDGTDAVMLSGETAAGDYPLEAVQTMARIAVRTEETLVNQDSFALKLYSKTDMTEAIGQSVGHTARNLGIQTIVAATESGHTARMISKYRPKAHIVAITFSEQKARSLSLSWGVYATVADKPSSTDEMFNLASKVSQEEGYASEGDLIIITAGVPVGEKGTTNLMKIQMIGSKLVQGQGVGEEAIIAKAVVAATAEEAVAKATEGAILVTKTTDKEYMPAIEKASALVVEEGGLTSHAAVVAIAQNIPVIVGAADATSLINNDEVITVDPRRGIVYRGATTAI

L. monocytogenes PK = biological target: T2, L. monocytogenes PK (Listeria monocytogenes, UniProt Q8Y6W1); assay: as above; details: co-substrate PEP; only kcat/Km, in figure
T2 construct: gene pykA; construct and purification not described
T2 sequence (Q8Y6W1 1-585): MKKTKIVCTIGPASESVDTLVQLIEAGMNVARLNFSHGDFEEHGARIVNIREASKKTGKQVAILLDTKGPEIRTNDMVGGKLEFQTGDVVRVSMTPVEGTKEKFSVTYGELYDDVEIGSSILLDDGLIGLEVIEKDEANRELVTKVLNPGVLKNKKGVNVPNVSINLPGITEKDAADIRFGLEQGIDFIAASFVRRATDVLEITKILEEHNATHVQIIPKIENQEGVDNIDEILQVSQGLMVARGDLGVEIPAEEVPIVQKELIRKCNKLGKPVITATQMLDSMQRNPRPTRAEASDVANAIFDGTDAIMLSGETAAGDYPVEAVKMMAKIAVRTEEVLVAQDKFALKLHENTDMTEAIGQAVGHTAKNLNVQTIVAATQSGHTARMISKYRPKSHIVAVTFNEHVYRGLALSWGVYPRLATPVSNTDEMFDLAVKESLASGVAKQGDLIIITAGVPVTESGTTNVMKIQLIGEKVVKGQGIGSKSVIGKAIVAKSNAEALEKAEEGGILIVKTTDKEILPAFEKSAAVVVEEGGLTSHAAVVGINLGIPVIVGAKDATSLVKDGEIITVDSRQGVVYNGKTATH

[1] = biological target: T3, B. subtilis pyruvate kinase (PK) (Bacillus subtilis, UniProt P80885); assay: activation of initial velocity, lactate dehydrogenase-coupled assay; details: activator at 1 mM; NDP varied, co-substrate PEP
T3 construct: gene pyk
T3 sequence (P80885 1-585): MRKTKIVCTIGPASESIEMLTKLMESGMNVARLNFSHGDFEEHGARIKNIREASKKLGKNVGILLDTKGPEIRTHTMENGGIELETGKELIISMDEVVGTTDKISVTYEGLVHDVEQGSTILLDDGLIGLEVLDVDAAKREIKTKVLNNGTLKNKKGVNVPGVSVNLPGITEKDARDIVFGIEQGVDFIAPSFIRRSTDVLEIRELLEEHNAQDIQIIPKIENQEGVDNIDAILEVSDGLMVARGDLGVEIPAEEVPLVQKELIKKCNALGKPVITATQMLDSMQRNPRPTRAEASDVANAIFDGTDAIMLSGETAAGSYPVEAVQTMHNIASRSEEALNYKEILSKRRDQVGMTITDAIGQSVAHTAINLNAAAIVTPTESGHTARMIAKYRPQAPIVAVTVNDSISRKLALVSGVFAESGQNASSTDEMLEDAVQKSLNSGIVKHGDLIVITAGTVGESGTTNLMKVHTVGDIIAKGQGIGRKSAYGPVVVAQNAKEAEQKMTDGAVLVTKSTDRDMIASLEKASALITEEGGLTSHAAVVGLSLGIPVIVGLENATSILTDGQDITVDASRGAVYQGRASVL

## Nc1ncnc2c1ncn2[C@@H]1O[C@H](COP(=O)(O)OP(=O)(O)O)[C@@H](O)[C@H]1O [ADP]
E. faecalis PK
  pyruvate kinase activity assay, catalytic efficiency: E. faecalis PK is also able to use ADP with high efficiency
L. monocytogenes PK
  pyruvate kinase activity assay, catalytic efficiency: L. monocytogenes PK can use ADP and UDP but less efficiently than GDP

## Nc1nc2c(ncn2[C@@H]2O[C@H](COP(=O)(O)OP(=O)(O)O)[C@@H](O)[C@H]2O)c(=O)[nH]1 [GDP]
E. faecalis PK
  pyruvate kinase activity assay, catalytic efficiency: Enterococcus faecalis and Listeria monocytogenes also showed highest catalytic efficiencies on GDP
L. monocytogenes PK
  pyruvate kinase activity assay, catalytic efficiency: Enterococcus faecalis and Listeria monocytogenes also showed highest catalytic efficiencies on GDP

## Nc1ncnc2c1ncn2[C@@H]1O[C@H](COP(=O)(O)O)[C@@H](O)[C@H]1O [AMP]
[1]
  activation of initial velocity, lactate dehydrogenase-coupled assay: when AMP, a known activator of pyruvate kinase, was added, we observed a marked increase
